According to ChEMBL document CHEMBL1201862, “PubChem BioAssay data set” (2004):
Values belong to the compound of their own block, whether it stands above or below them. Active and inactive are the calls of the source.

Columns and labels:
[1] = system: HEK293; assay: inhibitors of LMP1-driven NF-kB reporter, dose response, cell-based, HEK293, luciferase, cherry-pick (AID 588343); assay type: functional; details: Homo sapiens
[2] = molecular target: Latent membrane protein 1 (Human herpesvirus 4 (strain B95-8), UniProt P03230); assay: TES1-eGFP NF-kB reporter inhibition versus Tet-On dsRED, dose response, selectivity assay for LMP1 NF-kB inhibitor project, imaging, HEK293T, dual-color eGFP/dsRED, cherry-picks (AID 588398); assay type: functional, cell-based
[3] = molecular target: T1, Corticotropin-releasing factor receptor 2/Corticotropin-releasing factor-binding protein (Homo sapiens, UniProt P24387+Q13324); assay: Dose Response confirmation of uHTS hits for small molecule antagonists of the CRF-binding protein and CRF-R2 receptor complex.; assay type: functional; details: read-out: IC50_Mean
T1 sequence (Q13324 whole entry): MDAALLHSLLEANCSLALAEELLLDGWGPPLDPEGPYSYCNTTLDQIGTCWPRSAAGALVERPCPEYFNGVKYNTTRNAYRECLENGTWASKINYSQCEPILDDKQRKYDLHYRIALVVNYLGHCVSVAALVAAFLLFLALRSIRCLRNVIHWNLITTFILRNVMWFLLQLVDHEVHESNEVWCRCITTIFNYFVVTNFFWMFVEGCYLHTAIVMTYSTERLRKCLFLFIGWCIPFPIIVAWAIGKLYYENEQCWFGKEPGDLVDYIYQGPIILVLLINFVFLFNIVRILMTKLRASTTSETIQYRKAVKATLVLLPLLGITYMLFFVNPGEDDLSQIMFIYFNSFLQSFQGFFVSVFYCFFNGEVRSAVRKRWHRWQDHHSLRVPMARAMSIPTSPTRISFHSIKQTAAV
T1 sequence (P24387 whole entry): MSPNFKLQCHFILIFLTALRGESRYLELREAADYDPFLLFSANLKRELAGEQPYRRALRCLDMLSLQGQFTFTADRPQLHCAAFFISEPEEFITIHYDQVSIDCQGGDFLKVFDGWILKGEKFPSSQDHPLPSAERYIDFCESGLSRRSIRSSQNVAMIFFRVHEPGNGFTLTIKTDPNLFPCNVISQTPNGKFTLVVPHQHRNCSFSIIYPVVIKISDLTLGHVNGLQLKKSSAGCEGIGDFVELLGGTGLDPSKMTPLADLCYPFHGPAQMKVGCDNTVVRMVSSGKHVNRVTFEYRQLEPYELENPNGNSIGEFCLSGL

[4] = molecular target: T1, Corticotropin-releasing factor receptor 2/Corticotropin-releasing factor-binding protein; assay: activators of CRF receptor 2 with binding protein – uHTS hits, confirmation (AID 602473); assay type: functional; details: read-out: EC50_Mean
[5] = CRF-BP/CRF-R2 complex antagonists, dose response, cell-based, uHTS hits, 384-well (AID 651639); assay type: functional, Homo sapiens; details: read-out: IC50_Mean
[6] = molecular target: T2, Insulin-degrading enzyme (Homo sapiens, UniProt P14735); assay: activators of recombinant IDE enzyme, dose response, counter-screen for IDE activator project, biochemical, fluorescence polarization (AID 588681)
T2 sequence (P14735 whole entry): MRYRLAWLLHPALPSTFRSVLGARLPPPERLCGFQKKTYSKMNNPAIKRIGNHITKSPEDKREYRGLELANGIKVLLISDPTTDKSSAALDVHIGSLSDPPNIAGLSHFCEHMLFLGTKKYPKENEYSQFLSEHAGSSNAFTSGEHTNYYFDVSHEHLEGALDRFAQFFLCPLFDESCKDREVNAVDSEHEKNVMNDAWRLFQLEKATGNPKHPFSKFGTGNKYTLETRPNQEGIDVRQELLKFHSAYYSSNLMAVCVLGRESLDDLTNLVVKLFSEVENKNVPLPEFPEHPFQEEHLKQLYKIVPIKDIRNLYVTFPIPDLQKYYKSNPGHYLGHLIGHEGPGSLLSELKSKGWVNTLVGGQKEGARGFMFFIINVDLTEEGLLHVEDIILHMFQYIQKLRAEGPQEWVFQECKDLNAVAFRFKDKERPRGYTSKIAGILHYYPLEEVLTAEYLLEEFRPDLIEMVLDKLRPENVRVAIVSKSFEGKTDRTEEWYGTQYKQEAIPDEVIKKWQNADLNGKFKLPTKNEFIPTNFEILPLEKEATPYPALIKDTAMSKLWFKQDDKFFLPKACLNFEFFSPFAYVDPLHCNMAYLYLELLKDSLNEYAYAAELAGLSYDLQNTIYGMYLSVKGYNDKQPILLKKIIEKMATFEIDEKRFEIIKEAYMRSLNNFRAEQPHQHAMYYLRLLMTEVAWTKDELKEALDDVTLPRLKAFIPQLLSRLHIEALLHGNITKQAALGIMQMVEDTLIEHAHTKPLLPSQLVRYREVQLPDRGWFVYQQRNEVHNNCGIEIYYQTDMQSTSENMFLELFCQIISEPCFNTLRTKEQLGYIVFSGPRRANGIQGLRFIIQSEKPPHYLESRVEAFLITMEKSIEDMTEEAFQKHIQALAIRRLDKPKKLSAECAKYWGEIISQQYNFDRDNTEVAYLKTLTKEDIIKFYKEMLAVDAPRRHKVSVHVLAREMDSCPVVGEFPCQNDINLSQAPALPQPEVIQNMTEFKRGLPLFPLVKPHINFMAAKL

[7] = molecular target: T2, Insulin-degrading enzyme; assay: activators of endogenous IDE in HEK cells, dose response, cell-based, fluorescence polarization (AID 588439); assay type: functional
[8] = system: HEK293; assay: HEK cell cytotoxicity by LDH release, dose response, cytotoxicity control for IDE activator project, fluorescence, HEK cells (AID 588440); assay type: functional, cell-based; details: Homo sapiens;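 further: cytotoxicity by LDH release measuring loss of membrane integrity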
[9] = system: HEK293; assay: optical interference in Abeta FP readout, dose response, artefact control for IDE activator project, biochemical, fluorescence polarization (AID 588442); assay type: functional, cell-based; details: Homo sapiens
[10] = molecular target: T3, Sentrin-specific protease 8 (Homo sapiens, UniProt Q96LD8); assay: SENP8 protease inhibitors, SAR follow-up, biochemical, luminescence (AID 504501); assay type: functional
T3 sequence (Q96LD8 whole entry): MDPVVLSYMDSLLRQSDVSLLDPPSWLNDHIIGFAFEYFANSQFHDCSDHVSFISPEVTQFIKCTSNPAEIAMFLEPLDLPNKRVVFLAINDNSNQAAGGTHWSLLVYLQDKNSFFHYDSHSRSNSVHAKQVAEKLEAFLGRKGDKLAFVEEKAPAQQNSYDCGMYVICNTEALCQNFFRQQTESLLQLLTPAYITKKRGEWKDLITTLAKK

[11] = molecular target: T4, Caspase-3 (Homo sapiens, UniProt P42574); assay: SAR Analysis of small molecule inhibitors of Sentrin-specific proteases (SENPs) using a Caspase-3 Selectivity assay. [Related pubchem assays (depositor defined):AID2540, AID2599, AID434973, AID489001]; assay type: functional
T4 sequence (P42574 whole entry): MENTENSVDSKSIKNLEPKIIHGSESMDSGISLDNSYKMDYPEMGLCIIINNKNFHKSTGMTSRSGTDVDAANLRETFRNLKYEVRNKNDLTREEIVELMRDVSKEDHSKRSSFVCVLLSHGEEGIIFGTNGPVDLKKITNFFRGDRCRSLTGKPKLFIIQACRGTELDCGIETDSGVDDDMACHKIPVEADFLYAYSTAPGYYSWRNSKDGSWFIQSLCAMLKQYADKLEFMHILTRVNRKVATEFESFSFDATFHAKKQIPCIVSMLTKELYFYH

[12] = molecular target: T5, Sentrin-specific protease 6 (Homo sapiens, UniProt Q9GZR1); assay: SAR Analysis of small molecule inhibitors of Sentrin-specific protease 6 (SENP6) using a Luminescent assay. [Related pubchem assays (depositor defined):AID2582, AID2599]; assay type: functional
T5 sequence (Q9GZR1 whole entry): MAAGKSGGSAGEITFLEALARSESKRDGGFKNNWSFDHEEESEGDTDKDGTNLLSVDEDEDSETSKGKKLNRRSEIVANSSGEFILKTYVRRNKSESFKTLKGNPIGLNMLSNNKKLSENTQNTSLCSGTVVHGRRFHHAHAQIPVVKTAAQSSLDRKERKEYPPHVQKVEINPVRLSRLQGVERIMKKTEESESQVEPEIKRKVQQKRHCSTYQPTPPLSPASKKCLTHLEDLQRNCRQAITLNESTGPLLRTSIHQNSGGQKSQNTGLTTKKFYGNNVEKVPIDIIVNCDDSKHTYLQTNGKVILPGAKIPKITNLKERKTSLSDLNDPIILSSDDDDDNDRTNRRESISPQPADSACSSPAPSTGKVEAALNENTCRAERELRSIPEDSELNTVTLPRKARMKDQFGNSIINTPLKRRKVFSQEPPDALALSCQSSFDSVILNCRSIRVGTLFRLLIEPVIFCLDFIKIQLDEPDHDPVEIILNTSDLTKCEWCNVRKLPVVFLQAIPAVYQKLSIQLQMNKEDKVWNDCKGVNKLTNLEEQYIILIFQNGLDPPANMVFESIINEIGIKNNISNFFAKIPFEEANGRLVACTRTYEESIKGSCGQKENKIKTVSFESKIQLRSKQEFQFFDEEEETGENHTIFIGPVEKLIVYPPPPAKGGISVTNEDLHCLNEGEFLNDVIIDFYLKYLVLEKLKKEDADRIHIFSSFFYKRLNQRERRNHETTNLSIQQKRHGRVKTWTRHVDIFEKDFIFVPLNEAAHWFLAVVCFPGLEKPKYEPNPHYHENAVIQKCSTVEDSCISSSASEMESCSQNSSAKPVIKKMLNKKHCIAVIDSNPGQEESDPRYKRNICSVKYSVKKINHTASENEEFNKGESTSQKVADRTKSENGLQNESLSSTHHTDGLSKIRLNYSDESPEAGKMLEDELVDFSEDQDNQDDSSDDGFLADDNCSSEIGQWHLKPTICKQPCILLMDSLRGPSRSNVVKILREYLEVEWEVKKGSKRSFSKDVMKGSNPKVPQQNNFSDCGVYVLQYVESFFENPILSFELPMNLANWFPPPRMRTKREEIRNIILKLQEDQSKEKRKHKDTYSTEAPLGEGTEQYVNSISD

[13] = molecular target: T6, Sentrin-specific protease 7 (Homo sapiens, UniProt Q9BQF6); assay: SENP7 protease inhibitors, SAR follow-up, biochemical, luminescence (AID 504497); assay type: functional
T6 sequence (Q9BQF6 whole entry): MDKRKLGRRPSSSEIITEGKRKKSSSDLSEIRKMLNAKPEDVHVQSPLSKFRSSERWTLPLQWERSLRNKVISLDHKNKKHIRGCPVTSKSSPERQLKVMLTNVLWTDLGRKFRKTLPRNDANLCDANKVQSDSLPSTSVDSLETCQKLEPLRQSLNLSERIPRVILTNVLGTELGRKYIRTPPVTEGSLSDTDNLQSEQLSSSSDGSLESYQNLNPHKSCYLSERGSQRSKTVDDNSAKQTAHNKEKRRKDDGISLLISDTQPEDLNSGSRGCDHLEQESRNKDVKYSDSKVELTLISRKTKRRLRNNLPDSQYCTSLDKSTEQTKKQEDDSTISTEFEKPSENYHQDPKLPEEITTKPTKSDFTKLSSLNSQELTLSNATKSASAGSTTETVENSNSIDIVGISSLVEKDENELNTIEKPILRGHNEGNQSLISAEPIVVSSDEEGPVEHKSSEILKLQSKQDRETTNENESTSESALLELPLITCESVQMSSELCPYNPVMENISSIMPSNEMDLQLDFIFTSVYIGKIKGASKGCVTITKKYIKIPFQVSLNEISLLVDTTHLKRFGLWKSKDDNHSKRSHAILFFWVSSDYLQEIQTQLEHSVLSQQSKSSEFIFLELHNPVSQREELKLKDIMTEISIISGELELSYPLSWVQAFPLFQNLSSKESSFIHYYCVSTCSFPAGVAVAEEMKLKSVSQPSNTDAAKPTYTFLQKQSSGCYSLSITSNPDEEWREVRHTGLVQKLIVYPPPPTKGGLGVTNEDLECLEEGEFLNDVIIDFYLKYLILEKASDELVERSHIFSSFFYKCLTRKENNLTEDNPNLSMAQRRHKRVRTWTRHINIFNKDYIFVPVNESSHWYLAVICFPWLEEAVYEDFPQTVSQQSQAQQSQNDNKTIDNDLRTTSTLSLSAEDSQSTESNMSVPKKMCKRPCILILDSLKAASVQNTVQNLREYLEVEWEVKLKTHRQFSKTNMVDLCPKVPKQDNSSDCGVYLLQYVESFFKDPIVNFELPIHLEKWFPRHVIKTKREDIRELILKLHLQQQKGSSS

Latent membrane protein 1, sequence (P03230 whole entry): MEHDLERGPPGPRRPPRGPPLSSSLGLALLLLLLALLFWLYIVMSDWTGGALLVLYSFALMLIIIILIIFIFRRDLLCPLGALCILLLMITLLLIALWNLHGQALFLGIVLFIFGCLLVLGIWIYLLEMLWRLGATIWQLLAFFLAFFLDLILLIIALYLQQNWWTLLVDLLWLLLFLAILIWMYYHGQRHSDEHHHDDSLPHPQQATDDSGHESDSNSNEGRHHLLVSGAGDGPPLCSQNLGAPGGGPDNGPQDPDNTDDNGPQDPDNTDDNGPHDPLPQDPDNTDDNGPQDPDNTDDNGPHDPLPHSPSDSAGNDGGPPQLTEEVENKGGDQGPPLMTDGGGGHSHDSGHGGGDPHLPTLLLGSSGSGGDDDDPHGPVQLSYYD

Structure (SMILES): CC(C)c1cc(NC(=O)c2ccccc2)cc(C(C)C)c1O
AC50 [1]: 98.1 µM (active)
AC50 [2]: 30 µM (active)
IC50 [3]: < 0.368 µM (active)
EC50 [4]: > 53 µM (inactive)
IC50 [5]: 5.7 µM (active)

Structure (SMILES): C[C@@H]1O[C@@H](O[C@H]2[C@H](O[C@H]3C[C@]4(C)[C@H](CC(O)C5[C@@H]([C@]6(C)CC[C@@H](C(C)(C)O)O6)CC[C@]54C)[C@@]4(C)CC[C@H](O)C(C)(C)C34)O[C@H](CO)[C@@H](O)[C@@H]2O)[C@H](O)[C@H](O)[C@H]1O (some centres not stated)
EC50 [6]: > 54.7 µM (inactive)
EC50 [7]: > 54.7 µM (inactive)
IC50 [8]: > 89.2 µM (inactive)
EC50 [9]: > 54.7 µM (inactive)

IC50 [11]: > 99 µM (inactive)
IC50 [12]: > 99 µM (inactive)
IC50 [13]: > 99 µM (inactive)
Structure (SMILES): O=C(Cc1cccc(C(F)(F)F)c1)N(c1ccccc1)c1nc(-c2ccccc2)ns1
IC50 [10]: > 99 µM (inactive)

IC50 [11]: > 99 µM (inactive)
IC50 [12]: 18.7 µM (active)
IC50 [13]: > 99 µM (inactive)
Structure (SMILES): NC(=O)c1ccc(OC2CSC2)cc1
IC50 [10]: 7.5 µM (active)
